Experimental data published in patent US8759334B2, “Compounds useful for the treatment of metabolic and inflammatory diseases” (Galapagos NV, priority 2011, dated 2014).

Key:
Type in all cases: cell-based
human neutrophils = test: Neutrophil migration assay; conditions: neutrophils from human buffy coat, migration towards sodium acetate, read-out: human neutrophil migration inhibition EC50
Method: G Protein-Coupled Receptor 43 (GPR43) was described as an essential player in the process of neutrophil recruitment during intestinal inflammation.
The effect of agonists or antagonists for GPR43 can therefore be assayed in a neutrophil migration test. In the neutrophil migration assay, neutrophils, isolated from buffy coats from human volunteers, are treated with a compound for 30 minutes. Subsequently, the neutrophils are transferred to the upper wells of a Corning HTS transwell 96 permeable support system, of which the lower wells are filled with a sodium acetate solution.
The ACD buffer consists of 140 mM citric acid, 200 mM sodium citrate and 220 mM dextrose. The 6% dextran/0.9% NaCl solution consists of 15 g dextran T2000 and 2.25 g NaCl dissolved in 250 mL H2O.
A human buffy coat is diluted with an equal volume of ice cold DPBS. 20 mL of the diluted buffy coat is gently mixed with 4 mL of ACD buffer. Then, 12 mL of the 6% dextran/0.9% NaCl solution is added to the mixture and the samples are inverted gently up to 20 times. The total volume is transferred to a new recipient and incubated at room temperature for 1 h for complete separation of the two phases to occur. The yellowish supernatant is then transferred to a clean centrifugation tube and centrifuged for 12 minutes at 1300 rpm and 4° C. After centrifugation, the supernatant is discarded and the remaining cell pellet is rapidly resuspended in 12 mL of ice-cold H2O for red blood cell lysis to occur. After 20 seconds, 4 mL of ice-cold 0.6 M KCl is added. Samples are mixed carefully and centrifuged for 6 minutes at 1300 rpm, 4° C. The supernatant is discarded and the red blood cell lysis procedure is repeated one more time. […] After centrifugation for 12 min at 1300 rpm, 4° C., the supernatant is removed and the cell pellet, containing the neutrophils, is resuspended in 25 mL chemotaxis buffer.
A cell suspension of 8.9×10^6 cells per milliliter is prepared. 20 μL of compound solution in chemotaxis buffer is added to 180 μl cell suspension. The mixture is incubated at 37° C. for 30 minutes with Intermediate resuspension of the cells after 15 minutes. […] The receiver well of the transwell system is then filled with 200 μL chemotaxis buffer containing compound and chemotactic agent (sodium acetate). After incubation at 37° C. in 5% CO2 for 1 h, the upper plate of the transwell system is removed and the cell suspension in the receiver plate is transferred to a 96-well V-bottom plate. 50 μL of DPBS is added to the receiver plate to prevent remaining cells from drying out. The V-bottom plate is centrifuged for 6 minutes at 1500 rpm. The supernatant is removed and the cells are resuspended in 50 μL DPBS. The cells are then transferred back to the receiver plate of the transwell system. […] The plate is incubated for 10 minutes in the dark, while shaking. 170 μL of cell lysate is then transferred to a white 96-well plate and luminescence is measured. The detected luminescent signal is considered as linearly related to the number of migrated cells.

GPR43 [1] = target: T1, GPR43 (Homo sapiens, UniProt O15552); test: Calcium mobilization assay with probenecid; conditions: GPR43 stably expressing cells; triggered with sodium acetate at EC80; 2.5 mM probenecid; read-out: GPR43 assay with probenicid IC50
T1 construct: expressed in transfected cells
T1 sequence (O15552 1-330): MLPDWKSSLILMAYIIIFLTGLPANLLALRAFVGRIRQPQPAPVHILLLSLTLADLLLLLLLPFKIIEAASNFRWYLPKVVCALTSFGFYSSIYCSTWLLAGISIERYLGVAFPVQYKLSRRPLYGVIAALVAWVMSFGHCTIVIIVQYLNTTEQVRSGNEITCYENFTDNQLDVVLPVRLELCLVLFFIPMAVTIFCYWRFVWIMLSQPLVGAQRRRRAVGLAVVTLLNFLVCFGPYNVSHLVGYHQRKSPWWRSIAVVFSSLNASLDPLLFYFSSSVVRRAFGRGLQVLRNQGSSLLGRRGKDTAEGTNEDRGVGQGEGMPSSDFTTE
How it was run: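 […] being added at rising concentrations to a GPR43 stable line. Before this, cells were dye-loaded (Calcium 4 with 2.5 mM probenecid) for 2 h at 37 °C after overnight plating.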

GPR43 [2] = target: T1, GPR43; test: Calcium mobilization assay without probenecid; conditions: GPR43 stably expressing cells, triggered with sodium acetate at EC80, read-out: GPR43 assay without probenicid IC50
How it was run: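 In GPR43-expressing cells loaded with a Calcium 4 dye, antagonism was tested by a 15 min compound preincubation at 37 °C, then a sodium acetate challenge at EC80, with Ca-flux read on injection. For agonism, Ca-flux was recorded directly on compound injection.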

| SMILES | EC50 (human neutrophils) [nM] | IC50 (GPR43 [1]) [nM] | IC50 (GPR43 [2]) [nM] |
| --- | --- | --- | --- |
| Cc1cc(C)cc(CC(=O)N2CCC2(C)C(=O)N(CCCC(=O)O)Cc2ccc3cn[nH]c3c2)c1 (stereo not drawn) [Compound 123, 4-[{1-[2-(3,5-Dimethyl-phenyl)-acetyl]-2-methyl-azetidine-2-carbonyl}-(1H-indazol-6-ylmethyl)-amino]-butyric acid] | 0.01 to 100 | 101 to 500 |  |
| CC1(C(=O)N(CCCC(=O)O)Cc2ccc3cc[nH]c3c2)CCN1C(=O)Cc1coc2ccccc12 (stereo not drawn) [Compound 137, 4-[[1-(2-Benzofuran-3-yl-acetyl)-2-methyl-azetidine-2-carbonyl]-(1H-indol-6-ylmethyl)-amino]-butyric acid] | 0.01 to 100 | 0.01 to 100 |  |
| Cc1cc(C)cc(CC(=O)N2CCC2(C)C(=O)N(CCCC(=O)O)Cc2ccc3cc[nH]c3c2)c1 (stereo not drawn) [Compound 113, 4-[{1-[2-(3,5-Dimethyl-phenyl)-acetyl]-2-methyl-azetidine-2-carbonyl}-(1H-indol-6-ylmethyl)-amino]-butyric acid] | 0.01 to 100 | 0.01 to 100 |  |
| CC1(C(=O)N(CCCC(=O)O)Cc2ccc3cn[nH]c3c2)CCN1C(=O)c1csc2ccccc12 (stereo not drawn) [Compound 157, 4-[[1-(Benzo[b]thiophene-3-carbonyl)-2-methyl-azetidine-2-carbonyl]-(1H-indazol-6-ylmethyl)-amino]-butyric acid] | 0.01 to 100 | 101 to 500 |  |
| CC1(C(=O)N(CCCC(=O)O)Cc2ccc(Cl)cc2)CCN1C(=O)Cc1coc2ccccc12 (stereo not drawn) [Compound 103, 4-[[1-(2-Benzofuran-3-yl-acetyl)-2-methyl-azetidine-2-carbonyl]-(4-chloro-benzyl)-amino]-butyric acid] | 501 to 1000 | 101 to 500 |  |
| Cc1cc(C)cc(CC(=O)N2CCC2(C)C(=O)N(CC(=O)O)Cc2ccc3cn[nH]c3c2)c1 (stereo not drawn) [Compound 110, [{1-[2-(3,5-Dimethyl-phenyl)-acetyl]-2-methyl-azetidine-2-carbonyl}-(1H-indazol-6-ylmethyl)-amino]-acetic acid] | 101 to 500 | 101 to 500 |  |
| Cc1cc(C)cc(CC(=O)N2CCC2(C)C(=O)N(CCCC(=O)N2CCOCC2)Cc2ccc(Cl)cc2)c1 (stereo not drawn) [Compound 122, 1-[2-(3,5-Dimethyl-phenyl)-acetyl]-2-methyl-azetidine-2-carboxylic acid (4-chloro-benzyl)-(4-morpholin-4-yl-4-oxo-butyl)-amide] | 101 to 500 | 101 to 500 |  |
| CN(Cc1ccc(Cl)cc1)C(=O)C1(C)CCN1C(=O)Cc1ccccc1Cl (stereo not drawn) [Compound 9, 1-[2-(2-Chloro-phenyl)-acetyl]-2-methyl-azetidine-2-carboxylic acid (4-chloro-benzyl)-methyl-amide] |  | > 1000 | > 1000 |
| COC(=O)[C@H](C)N(Cc1ccc(Cl)cc1)C(=O)C1(C)CCN1C(=O)Cc1cc(C)cc(C)c1 (stereo partly drawn) [Compound 55, (S)-2-((4-Chloro-benzyl)-{1-[2-(3,5-dimethyl-phenyl)-acetyl]-2-methyl-azetidine-2-carbonyl}-amino)-propionic acid methyl ester] |  | > 1000 | > 1000 |
| Cc1cc(C)cc(CC(=O)N2CCC2(C)C(=O)N(C)Cc2ccc(Br)cc2)c1 (stereo not drawn) [Compound 30, 1-[2-(3,5-Dimethyl-phenyl)-acetyl]-2-methyl-azetidine-2-carboxylic acid (4-bromo-benzyl)-methyl-amide] |  | > 1000 | > 1000 |
| Cc1cc(C)cc(CC(=O)N2CCC2(C)C(=O)N(C)Cc2ccc(Cl)cc2Cl)c1 (stereo not drawn) [Compound 36, 1-[2-(3,5-Dimethyl-phenyl)-acetyl]-2-methyl-azetidine-2-carboxylic acid (2,4-dichloro-benzyl)-methyl-amide] |  | > 1000 | > 1000 |
| Cc1ccccc1-c1ccc(CC(=O)N2CCC2(C)C(=O)N(C)Cc2ccc(Cl)cc2)cc1 (stereo not drawn) [Compound 25, 2-Methyl-1-[2-(2′-methyl-biphenyl-4-yl)-acetyl]-azetidine-2-carboxylic acid (4-chloro-benzyl)-methyl-amide] |  | > 1000 | > 1000 |
| Cc1cc(C)cc(CC(=O)N2CCC2(C)C(=O)N(CC(=O)NS(C)(=O)=O)Cc2ccc(Cl)cc2)c1 (stereo not drawn) [Compound 95, 1-[2-(3,5-Dimethyl-phenyl)-acetyl]-2-methyl-azetidine-2-carboxylic acid (4-chloro-benzyl)-(2-methanesulfonylamino-2-oxo-ethyl)-amide] |  | > 1000 | 501 to 1000 |
| Cc1cc(C)cc(CC(=O)N2CCC2(C)C(=O)N(CC(=O)N(C)C)Cc2ccc(Cl)cc2)c1 (stereo not drawn) [Compound 54, 1-[2-(3,5-Dimethyl-phenyl)-acetyl]-2-methyl-azetidine-2-carboxylic acid (4-chloro-benzyl)-dimethylcarbamoylmethyl-amide] |  | > 1000 | 501 to 1000 |
| Cc1cc(C)cc(CC(=O)N2CCC2(C)C(=O)N(C)Cc2ccc(C(C)C)cc2)c1 (stereo not drawn) [Compound 31, 1-[2-(3,5-Dimethyl-phenyl)-acetyl]-2-methyl-azetidine-2-carboxylic acid (4-isopropyl-benzyl)-methyl-amide] |  | > 1000 | 501 to 1000 |
| CC1(C(=O)N(CC(=O)O)Cc2ccc(Cl)cc2)CCN1C(=O)Cc1noc2ccccc12 (stereo not drawn) [Compound 79, [[1-(2-Benzo[d]isoxazol-3-yl-acetyl)-2-methyl-azetidine-2-carbonyl]-(4-chloro-benzyl)-amino]-acetic acid] |  | > 1000 | > 1000 |
| COC(=O)c1cccc(-c2ccc(CC(=O)N3CCC3(C)C(=O)N(C)Cc3ccc(Cl)cc3)cc2)c1 (stereo not drawn) [Compound 26, methyl 4′-(2-(2-((4-chlorobenzyl)(methyl)carbamoyl)-2-methylazetidin-1-yl)-2-oxoethyl)biphenyl-3-carboxylate] |  | > 1000 | > 1000 |
| CN(Cc1ccc(Cl)cc1)C(=O)C1(C)CCN1C(=O)Cc1ccc(Cl)c(Cl)c1 (stereo not drawn) [Compound 18, 1-[2-(3,4-Dichloro-phenyl)-acetyl]-2-methyl-azetidine-2-carboxylic acid (4-chloro-benzyl)-methyl-amide] |  | > 1000 | > 1000 |
| COc1ccc(-c2ccc(CC(=O)N3CCC3(C)C(=O)N(C)Cc3ccc(Cl)cc3)cc2)cc1 (stereo not drawn) [Compound 23, 1-[2-(4′-Methoxy-biphenyl-4-yl)-acetyl]-2-methyl-azetidine-2-carboxylic acid (4-chloro-benzyl)-methyl-amide] |  | > 1000 | > 1000 |
| CN(Cc1ccc(Cl)cc1)C(=O)C1(C)CCN1C(=O)Cc1cccc(-c2ccccc2)c1 (stereo not drawn) [Compound 27, 1-(2-Biphenyl-3-yl-acetyl)-2-methyl-azetidine-2-carboxylic acid (4-chloro-benzyl)-methyl-amide] |  | > 1000 | > 1000 |
| Cc1cc(C)cc(CC(=O)N2CCC2(C)C(=O)N(CCCC#N)Cc2ccc(Cl)cc2)c1 (stereo not drawn) [Compound 97, 1-[2-(3,5-Dimethyl-phenyl)-acetyl]-2-methyl-azetidine-2-carboxylic acid (4-chloro-benzyl)-(3-cyano-propyl)-amide] |  | 501 to 1000 | 101 to 500 |
